# Measurements taken from patent US20090092740A1, “METHOD FOR INCREASING LONG-TERM STORAGE OF CUT FLOWERS” (GREENOY LTD., priority 2006, published 2009).
# Test system: cut Rose Flowers (Akito and Red One varieties)
# Conditions: several ppm in acrylic emulsion (tested 0.8 to 11.2 ppm); stored at 2° C. for one month; FIG. 1
# Procedure: The flowers were dipped in several emulsions that included several concentration of STS (diluted from 8 g/l by taking from 0.1 to 1.4 ml per liter), ranging from 0.8 to 11.2 ppm. A bunch of roses, flowers and leaves, was dipped in the solution at each concentration for 2 seconds three times. Each treatment included 10 flowers. After the dip process, the flowers were put on a net for 10 minutes, so that an excess solution could drain off. The flowers were kept in an impregnation box at 2° C. for one month, and then they were allocated in vases for quality and shelf life assessments. The quality and appearance of the flowers were checked every day (FIG. 1).
substance,measurement,value
silver thiosulfate,quality of the stored roses,improves the quality of the stored roses
